Values after ≈ are worked out from the molar mass of the structure shown.
Experiments:
L1210 cells = experiment: Growth inhibition of cultured L1210 cells; details: Mus musculus, L1210, read-out: % Inhibition, Growth (on Day 2)
[1] = Acute toxicity, single intraperitoneal injection; details: mouse, in vivo, ip; single i.p. injection, dd mice; read-out: LD50, intraperitoneal administration
P388 leukemia = experiment: Inhibition of growth of P388 leukemia in mice; format: in vivo
[2] = test system: solid and ascitic-type mammalian malignant tumors; experiment: Inhibitory action against solid and ascitic-type mammalian malignant tumors; format: in vivo, mammals
Staph. aureus FDA 209P = experiment: Minimum inhibitory concentration, broth dilution method; details: Staphylococcus aureus, FDA209P
Staph. aureus Smith = experiment: as above; details: Staphylococcus aureus
Bac. subtilis ATCC 6633 = experiment: as above; details: Bacillus subtilis, ATCC6633
Bac. cereus ATCC 9634 = experiment: as above; details: Bacillus cereus, ATCC9634
[3] = test system: Bac. megaterium NRRL B-938; experiment: as above; details: Priestia megaterium, NRRLB938
Sar. lutea ATCC 9341 = experiment: as above; details: Micrococcus luteus, ATCC9341
Mic. flavus = experiment: as above; details: Micrococcus flavus
Corv. bovis 1810 = experiment: as above
[4] = test system: Ps. fluoroescens NIHJB-254; experiment: as above
Pr. morganii = experiment: as above; details: Morganella morganii
[5] = test system: Mycobact. smegmatis ATCC 607; experiment: as above
Can. albicans IAM 4905 = experiment: as above; details: Candida albicans, IAM4905
Can. tropicalis IAM 4942 = experiment: as above; details: Candida tropicalis, IAM4942
[6] = P388 leukemia in mice, in words
[7] = solid and ascitic-type mammalian tumors, in words

Row | SMILES | inhibition at 0.1 µg/mL (L1210 cells) [%] | LD50 [1] [mg/kg] | inhibiting the growth of P388 leukemia (P388 leukemia; mouse, in vivo) | inhibitory action against malignant tumors ([2]; in vivo) | MIC (Staph. aureus FDA 209P) [µg/mL] | MIC (Staph. aureus Smith) [µg/mL] | MIC (Bac. subtilis ATCC 6633) [µg/mL] | MIC (Bac. cereus ATCC 9634) [µg/mL] | MIC [3] [µg/mL] | MIC (Sar. lutea ATCC 9341) [µg/mL] | MIC (Mic. flavus) [µg/mL] | MIC (Corv. bovis 1810) [µg/mL] | MIC [4] [µg/mL] | MIC (Pr. morganii) [µg/mL] | MIC [5] [µg/mL] | MIC (Can. albicans IAM 4905) [µg/mL] | MIC (Can. tropicalis IAM 4942) [µg/mL] | inhibiting the growth of P388 leukemia (P388 leukemia; [6]) | inhibitory action against malignant tumors [2, 7]
1 | CC[C@@]1(O)C[C@H](O[C@H]2C[C@H](N(C)C)[C@H](O[C@H]3C[C@H](O)[C@H](O[C@H]4CCC(=O)[C@H](C)O4)[C@H](C)O3)[C@H](C)O2)c2c(cc3c(c2O)C(=O)c2c(O)cccc2C3=O)[C@H]1C(=O)OC [Aclacinomycin, reference compound] | 89.7 |  |  |  |  |  |  |  |  |  |  |  |  |  |  |  |  |  | 
2 | CC[C@@]1(O)C[C@H](O[C@H]2C[C@H](N(C)C)[C@H](O[C@H]3C[C@H](O)[C@H](OC4CCC(=O)C(C)O4)[C@H](C)O3)[C@H](C)O2)c2c(cc3c(c2O)C(=O)c2c(O)cccc2C3=O)[C@H]1C(=O)OC (stereo partly drawn) [D-cinerulosyl-2-deoxy-L-fucosyl-L-rhodosaminyl-alkavinone] | 80.7 | 28.5 | effective in inhibiting the growth of malignant tumors | marked inhibitory action | 6.25 (≈ 7.7 µM) | 1.56 (≈ 1.92 µM) | 3.12 (≈ 3.84 µM) | 1.56 (≈ 1.92 µM) | 6.25 (≈ 7.7 µM) | 0.78 (≈ 0.961 µM) | 0.2 (≈ 0.246 µM) | 1.56 (≈ 1.92 µM) | 100 (≈ 123 µM) | > 100 | 3.12 (≈ 3.84 µM) | 100 (≈ 123 µM) | 100 (≈ 123 µM) |  | 
3 | CC[C@@]1(O)C[C@H](O[C@H]2C[C@H](N(C)C)[C@H](O[C@H]3C[C@H](O)[C@H](OC4CCC(=O)C(C)O4)[C@H](C)O3)[C@H](C)O2)c2c(cc3c(c2O)C(=O)c2c(O)ccc(O)c2C3=O)[C@H]1C(=O)OC (stereo partly drawn) [D-cinerulosyl-2-deoxy-L-fucosyl-L-rhodosaminyl-ε-pyrromycinone] | 82.1 | 17 | effective in inhibiting the growth of malignant tumors | marked inhibitory action | 3.12 (≈ 3.77 µM) | 1.56 (≈ 1.88 µM) | 1.56 (≈ 1.88 µM) | 0.78 (≈ 0.942 µM) | 6.25 (≈ 7.55 µM) | 0.78 (≈ 0.942 µM) | 0.2 (≈ 0.242 µM) | 0.78 (≈ 0.942 µM) | 100 (≈ 121 µM) | > 100 | 3.12 (≈ 3.77 µM) | > 100 | > 100 |  | 
4 | CC[C@@]1(O)C[C@H](O[C@H]2C[C@H](NC)[C@H](O[C@H]3C[C@H](O)[C@H](O[C@H]4CCC(=O)[C@H](C)O4)[C@H](C)O3)[C@H](C)O2)c2c(cc3c(c2O)C(=O)c2c(O)cccc2C3=O)[C@H]1C(=O)OC [MA 144-L] | 27.4 | 45.5 |  |  | 6.25 (≈ 7.83 µM) | 1.56 (≈ 1.96 µM) | 3.1 (≈ 3.89 µM) | 1.56 (≈ 1.96 µM) | 6.25 (≈ 7.83 µM) | 0.78 (≈ 0.978 µM) | 0.2 (≈ 0.251 µM) | 1.56 (≈ 1.96 µM) | 100 (≈ 125 µM) | > 100 | 3.1 (≈ 3.89 µM) | 100 (≈ 125 µM) | 100 (≈ 125 µM) | effective in inhibiting the growth of malignant tumors | marked inhibitory action
5 | CC[C@@]1(O)C[C@H](O[C@H]2C[C@H](N(C)C)[C@H](O[C@H]3C[C@H](O)[C@H](O[C@H]4CC[C@H](O)[C@H](C)O4)[C@H](C)O3)[C@H](C)O2)c2c(cc3c(c2O)C(=O)c2c(O)cccc2C3=O)[C@H]1C(=O)OC [MA 144-N1] | 79.2 | 32.5 |  |  | 6.25 (≈ 7.68 µM) | 0.78 (≈ 0.958 µM) | 3.1 (≈ 3.81 µM) | 0.78 (≈ 0.958 µM) | 3.1 (≈ 3.81 µM) | 0.78 (≈ 0.958 µM) | 0.4 (≈ 0.491 µM) | 0.78 (≈ 0.958 µM) | > 100 | > 100 | > 100 | > 100 | > 100 | effective in inhibiting the growth of malignant tumors | marked inhibitory action
